Assay [1] relates to disulfide bond (var 4-S-S-var 8). In words: DNA nanoswitch disulfide bond reduction. As to conditions: 10 μM TCEP, room temperature (25° C.). On the procedure:
This construct was created in 3 steps. 1) Var 4 and a truncated version of var 8 with a 3′ and a 5′ thiol respectively, were reduced in 50 mM TCEP (BondBreaker Thermo Scientific). 2) These two oligonucleotides were linked by a disulfide. 3) The disulfide-bridged oligonucleotides were hybridized onto the DNA nanoswitch. • 1) To reduce the thiols on the oligonucleotides they were incubated in 50 mM TCEP for 1 hour at RT. • 2) Equal volumes of the two oligonucleotide-TCEP mixtures were then combined. The TCEP was removed using a QIAGEN nucleotide-removal kit. The oligonucleotides were then allowed to form disulfides in the absence of reducing agent in PBS for 1 hour before running the products on a precast 4-20% gradient polyacrylamide TBE gel. As the oligonucleotides were different sizes (60 and 30 nt) the appropriate hetero dimer could be easily identified and purified using electroelution as previously described^5. • 3) The var 4-S-S-var 8 was used instead of the normal var 4 and var 8. This was annealed onto the linear M13 backbone at a 1:1 ratio and was added along with the other oligonucleotides at the beginning of the annealing. This yielded loops with a disulfide bridging variable regions 4 and 8.
With these loops in hand we could observe loop opening as a result of TCEP reduction of the disulfide bond. […]

Assay [2] addresses T1, streptavidin (Streptomyces avidinii, UniProt P22629).
T1 construct: purchased Rockland
The assay can be described thus: DNA nanoswitch gel electrophoresis, biotin-streptavidin on-rate and off-rate (Example 3). Format: binding. On the procedure:
This construct used biotinylated versions of two oligonucleotides (var 4 and var 8), which were used in 4× molar excess to the scaffold, while all other oligonucleotides were used in a 10× molar excess. […] The final DNA construct was then diluted 100× from its original concentration of ˜16 nM (to 160 pM), and mixed in equal volumes with streptavidin (Rockland) at 6 nM nominal concentration to form the loops, yielding final nominal concentrations of ˜80 pM and 3 nM, respectively.
The 25° C. experiment was performed at room temperature, the 4° C. experiment was performed in a cold room, and the 37° C. and 50° C. experiments were performed using a thermal cycler. […] Actual concentrations used to determine the on-rates were measured using spectrophotometry and a HABA assay to determine streptavidin activity.
Off-rate measurements were performed by forming looped construct as described above, and letting the solution sit for at least 24 hours to allow the system to reach equilibrium. […] The 4° C. condition was done in a refrigerator, the 25° C. sample was done in a water bath, and the 37° C. and 50° C. temperatures were done in a thermal cycler. To run all the samples on a single gel, the quenching times were determined relative to the predetermined gel running time.
The amount of material in each gel band was quantified by analyzing the scanned gel images with the gel analysis tool in the freely available ImageJ software package. Using rectangular regions of interest that just capture the width of the gel bands, this toolbox produces intensity profiles whose area can be measured to quantify the total brightness in each band. We applied the same rectangular window size to each lane within a single gel. In many gels the highest molecular weight band of the added ladder was used as a normalizing reference lane. This relaxed the constraints of pipetting perfectly across all lanes. • 2) All multistate (with 5 bands) gels were analyzed as follows
Error bars were produced based on this analysis, and all fitting procedures used an error weighted least squares fit.
The time evolution of DNA nanoswitch states are modeled using multistep reaction kinetics. On rates are modeled as a two-step process: Unbound Linear→Singly Bound Linear→Looped
Step 1 represents the binding of a free receptor in solution to a ligand on the scaffold (yielding the solution on-rate), Step 2 represents the subsequent binding of this receptor to another ligand on the same scaffold to form a loop (yielding the loop-closure rate).
We additionally used Eyring analysis to fit the temperature dependence of the kinetic rates: […]

A further assay concerns the target Neutravidin (Gallus gallus, UniProt P02701). The assay can be described thus: DNA nanoswitch gel electrophoresis, biotin with avidin and Neutravidin. As to conditions: relative to avidin. It counts as binding. On the procedure: Preparations with avidin and neutravidin were prepared in the same way, but protein concentrations were sometimes altered to enable on-rate measurements over a similar time scale as the streptavidin experiments.

Assay [3] has as its target T1, streptavidin. In words: DNA nanoswitch gel electrophoresis, biotin-streptavidin kinetics (Example 2, FIG. 7 and 8). Format: binding. As to conditions: for dissociation time: 150 mM physiological salt. From the text:
FIG. 7. […] (A) The DNA nanoswitch has two distinct states, depending on the binding of a receptor-ligand pair, that can be distinguished by gel electrophoresis, (B) In the presence of excess ligand, a nanoswitch in the bound state will become trapped in the unbound state upon dissociation. […] The amount of looped construct is quantified from the gel to determine the kinetics of dissociation.
FIG. 7D, for example, illustrates the formation of looped constructs having two biotins in the presence of streptavidin (t=0).
Linkers were designed according to protocols for long (2580 bp) and short (600 bp) loops as described herein. […] All other oligos were the same as those used previously. Briefly, looped constructs were made by mixing a long single-stranded DNA (M13mp18, in this case) with over 121 oligos that are complementary along its length. […] The constructs come together by self-assembly with a temperature ramp heating and cooling them.
Recognizing that the nanoswitch conformation informs the receptor-ligand binding state (bound or unbound), and that the conformation can be observed on a gel, an assay to measure bulk interaction kinetics was developed. The assay, conceptually shown in FIG. 7, proceeds as follows: 1) form a looped nucleic acid (DNA) construct that relies on a receptor and a ligand being bound to each other, 2) quench the interaction between the receptor and the ligand, for example, with excess receptor or ligand to prevent rebinding following dissociation, 3) monitor the relative amount of looped construct over time to measure kinetics.
Linear double-stranded DNA constructs 7249 base pairs (bp) in length were self-assembled by combining the single-stranded M13 bacteriophage genome with 121 complementary oligos. (See also Halvorsen K et al., 2011.). Two of the oligos were labeled with single biotins and placed 2580 bp from each other, such that interaction with streptavidin induced the formation of a 2580 bp loop in the structure. […] The entire array of 16 conditions with five time points each plus controls was then run on a single 96 lane agarose gel (FIG. 8).
The gel analysis tool in ImageJ was used to measure the integrated intensity of the band containing looped construct, and this quantity was normalized by the integrated intensity of a reference band in the same lane from a DNA ladder, which was added to the construct prior to starting experiments. Individual time constants for each experimental condition were determined by fitting a single exponential decay to the data using an error weighted least squares fitting.

Assay [4] addresses T1, streptavidin. In words: DNA nanoswitch gel electrophoresis, desthiobiotin-streptavidin off-rate. Format: binding. The protocol:
Desthiobiotin experiments were conducted in a similar manner as the biotin experiments with slight modifications. […] The off-rate of the desthiobiotin interaction is much faster than the typical 100 minute gel run time. Noting that once a loop opens in the gel, the reptation of the DNA prevents the loop from closing again, we ran samples for different amounts of time in the gel at 15 V/cm and 4° C., and quantified the fraction looped as a function of running time. In addition to allowing the determination of the desthiobiotin-streptavidin off rate, this gel also allowed us to determine the minimum amount of time required to achieve separation of the looped and unlooped bands in the gel. This enabled the use of the standard quenching technique for measuring desthiobiotin off-rates as described in the previous section; these gels were run at 15 V/cm for 10 minutes in pre-chilled electrophoresis buffer.

[5] abbreviates: calculated from on-rate and off-rate.

Consider 3 compounds from patent US11198900B2, “Nucleic acid-based linkers for detecting and measuring interactions” (Children's Medical Center Corporation, priority 2014, dated 2021).

SMILES strings stand for the structures.

T1 sequence (P22629 25-183): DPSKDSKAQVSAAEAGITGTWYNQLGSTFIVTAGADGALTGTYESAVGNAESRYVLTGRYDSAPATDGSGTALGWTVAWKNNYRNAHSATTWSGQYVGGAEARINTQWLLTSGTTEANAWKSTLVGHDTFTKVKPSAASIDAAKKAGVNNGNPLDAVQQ
Neutravidin, sequence (P02701 25-152): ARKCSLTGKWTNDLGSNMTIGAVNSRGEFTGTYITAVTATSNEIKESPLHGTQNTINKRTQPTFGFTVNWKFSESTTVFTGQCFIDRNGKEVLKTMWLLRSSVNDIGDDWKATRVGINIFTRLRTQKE

In the case of `O=C(O)CCP(CCC(=O)O)CCC(=O)O` [TCEP], the “time constant of disulfide bond reduction” value in assay [1] is given as 2.6±0.4 weeks.

On to `O=C(O)CCCC[C@@H]1SC[C@@H]2NC(=O)N[C@@H]21` [biotin], for which, on streptavidin [2] (150 mM salt, room temperature), the on-rate is on record as 4.0±0.7×10^6 M^−1s^−1. Moreover, the “variation of dissociation kinetics over temperature range” value on streptavidin [2] (4-50° C.) is on record as ~1,000 fold. Besides, the “variation of dissociation kinetics over salt range” value on streptavidin [2] (25-500 mM) is reported as “about 2 fold”. In addition, on streptavidin [2] (setting [5]), the “equilibrium enthalpy change, ΔH” value was 26.01 ± 0.05 kcal/mol. The “equilibrium free energy change, ΔG^0” value on streptavidin [2] (setting [5]) was -17.1 ± 0.1 kcal/mol. In addition, the dissociation time on streptavidin [2] (physiological salt conditions, 25° C.) came to 9.7 ± 0.4 days; on streptavidin [3] (25° C.), 148 ± 10 h; at streptavidin [3] (37° C.) it was 11.2 ± 3 h. In addition, at Neutravidin, the “affinity of Neutravidin for biotin, weaker than avidin's” value was 20 times. For the same compound, the “change of off-rate with salt” value at streptavidin [3] (5 mM to 500 mM at a given temperature) is given as “less than 2 fold”. Besides, the “variation of off-rate with temperature” value on streptavidin [3] (4° C. to 50° C. at a given salt concentration) is on record as “over 100 fold”. Also, on streptavidin [3] (high temperature), the “off-rates as fast as” value was 40 min.

Take `C[C@@H]1NC(=O)N[C@@H]1CCCCCC(=O)O` [desthiobiotin]: the off-rate on streptavidin [4] (4° C.) worked out at 35.3 ± 7.5 min; on streptavidin [4] (room temperature), 8.6 ± 1.2 min.
